The results in this text go back to PubChem BioAssay AID1996.

Each structure is given as a SMILES string. Values after ≈ are worked out from the molar mass of the structure shown.

The conditions of this series: buffer; pH 7.4; 200.0 µM.
One may read the kinetic solubility as the concentration staying in solution when a stock, usually in DMSO, is diluted into the medium. With `COc1cc2c(cc1OC)C(CCc1ccccc1)=NCC2`, the kinetic solubility was determined as 42.6 µg/mL (≈ 144 µM). The figure for `COc1ccc(CNC(=S)Nc2cccc(Cl)c2)cc1` is 3 µg/mL (≈ 9.78 µM); for `Cc1ccc(NC(=O)Nc2ccc(F)cc2F)c(OC(F)F)c1` it is < 0.4 µg/mL; for `Brc1ccc(-c2cn3ccccc3n2)cc1` it is 0.8 µg/mL (≈ 2.93 µM). In the case of `CC(C)(C)C1CCC(=NOC(=O)c2ccc(F)cc2)CC1` (configuration not stated), the kinetic solubility worked out at 1.3 µg/mL (≈ 4.46 µM). Compared with the last compound, the solubility kinetic is about 1.6-fold higher. Consider `CCOC(=O)C1CCN(C(=O)/C(=C/c2ccccc2)NC(=O)c2ccccc2)CC1`, for which the kinetic solubility was > 61 µg/mL.

`COC(=O)c1c(NC(=O)C2CC(C)=C(C)CC2C(=O)O)sc2c1CCCCC2` (configuration not stated) gave a solubility (kinetic) of 58.1 µg/mL (≈ 143 µM). The same measure for `CC(=O)NCc1ccc(S(=O)(=O)N2CCCN(C)CC2)cc1.Cl`: > 54.3 µg/mL; for `NC(=O)CCN1CCN(S(=O)(=O)/C=C/c2ccccc2)CC1`: 42.4 µg/mL (≈ 131 µM).

`Cc1cc2oc(=O)cc(CN3CCOCC3)c2cc1Cl` displayed a solubility (kinetic) of 4.3 µg/mL (≈ 14.6 µM). `COc1ccc(NC(=S)Nc2ccc(N(C)C(C)=O)cc2)cc1`: the kinetic solubility is > 49.4 µg/mL. The same measure for `Cc1ccnc(NS(=O)(=O)c2ccc(NS(C)(=O)=O)cc2)n1`: 47.8 µg/mL (≈ 140 µM); for `Cc1ccc(C)c(N2CCN(CC3CCCCC3)CC2)c1`: 2.3 µg/mL (≈ 8.03 µM); for `NC(=O)c1ccccc1OC1CCC1`: > 28.7 µg/mL.

On to `O=C1CCN(C(=S)NCc2ccccc2)CC1`, for which the kinetic solubility was > 37.3 µg/mL. In turn, `N/C(=N\OC(=O)c1ccc(F)cc1)c1ccc(Br)cc1` gave a solubility (kinetic) of 0.4 µg/mL (≈ 1.19 µM). The same measure for `COc1cc(/C=C2\SC(N)=NC2=O)cc(Br)c1O`: 1.7 µg/mL (≈ 5.16 µM). The figure for `CNC(=S)N(CCc1c(C)[nH]c2ccccc12)Cc1ccco1` is 1.5 µg/mL (≈ 4.58 µM); for `COc1ccc(-c2cc(-c3ccccc3)c(C#N)c(SCC(=O)O)n2)cc1` it is > 56.5 µg/mL; for `COc1cccc(/C=C/C(=O)NCc2ccc3c(c2)OCO3)c1` it is 11.4 µg/mL (≈ 36.6 µM). The figure for `CCc1ccc(C(N)=S)cc1` is > 24.8 µg/mL; for `Nc1c(C(=O)Nc2ccccc2F)sc2nc(-c3cccnc3)ccc12` it is 4.2 µg/mL (≈ 11.5 µM). As to `N#Cc1c(NCCO)ccc([N+](=O)[O-])c1NCCO`, the solubility (kinetic) was > 39.9 µg/mL. The figure for `CN(CCO)CC(O)Cn1cnc2c1c(=O)n(C)c(=O)n2C.O=C(O)c1cccnc1` (configuration not stated) is > 65.2 µg/mL.

In turn, `CCN(CC)C(=S)SCC(=O)Nc1ncc2c(n1)CCCC2=O` registered a kinetic solubility of 15.5 µg/mL (≈ 44 µM).

In the case of `Cc1ccc(C)c(NS(=O)(=O)c2ccc3[nH]c(=O)[nH]c3c2)c1`, the kinetic solubility is 4.8 µg/mL (≈ 15.1 µM).

`CSc1ncccc1C(=O)NC1CCN(Cc2ccccc2)CC1` came in with a solubility (kinetic) of 48.1 µg/mL (≈ 141 µM). The figure for `Cc1sc(N)nc1C12CC3CC(CC(C3)C1)C2` is 3.3 µg/mL (≈ 13.3 µM). The same measure for `COc1ccc(C2c3ccsc3CCN2C(C)=O)cc1` (configuration not stated): 32.2 µg/mL (≈ 112 µM). The figure for `Cl.OC(CNC1CCCC1)COc1ccc(Cl)cc1` (configuration not stated) is > 45.9 µg/mL. Regarding `Cc1ccc(NC(=O)C2=C(C(=O)O)CCCC2)cc1F`, the kinetic solubility stood at 26.9 µg/mL (≈ 97 µM). The figure for `CCc1cccc(C)c1NS(=O)(=O)c1cccs1` is 14.6 µg/mL (≈ 51.9 µM); for `Cc1ccc(C)c(C(=O)c2ccccc2NC(=O)c2ccccn2)c1` it is < 0.4 µg/mL. The figure for `Cn1cnc([N+](=O)[O-])c1C(=O)Nc1cccc([N+](=O)[O-])c1` is 11.2 µg/mL (≈ 38.5 µM); for `COc1ccccc1/C=C(\C#N)C(=O)c1cccn1C` it is 9.7 µg/mL (≈ 36.4 µM); for `O=C(CCc1nc(-c2ccccc2Cl)no1)NC1CCCC1` it is 23 µg/mL (≈ 71.9 µM).

As to `Cc1ccc(NC(=O)C2CC3CCC2C3)c(Br)c1` (configuration not stated), the kinetic solubility worked out at 1.9 µg/mL (≈ 6.16 µM). Against the preceding compound, the solubility kinetic is about 12-fold lower. The figure for `O=[N+]([O-])c1ccc(Sc2ncc3ccccn23)nc1` is 20.6 µg/mL (≈ 75.7 µM); for `N/C(=N\O)c1ccncc1` it is > 20.6 µg/mL; for `Cc1ccc(NC(=O)CCNC(=O)c2ccc(Cl)cc2)cc1C` it is 1.7 µg/mL (≈ 5.14 µM). Consider `NC(=O)C1CCN(CC(=O)Nc2ccc3c(c2)OCCO3)CC1`, for which the kinetic solubility is > 47.9 µg/mL. In the case of `CCOC(=O)c1cc(C#N)c(Nc2ccccc2OC)nc1C(F)(F)F`, the solubility (kinetic) is < 0.3 µg/mL. The figure for `CCOC(=O)Cn1c(C)c(Br)c(COC)c(C#N)c1=O` is > 51.5 µg/mL. The figure for `CSc1ncc(Cl)c(C(=O)Nc2ccc(NC(C)=O)cc2)n1` is 18.6 µg/mL (≈ 55.2 µM); for `CCC1(c2ccc(F)cc2)NC(=O)N(CC(=O)Nc2ccc3c(c2)OCCO3)C1=O` (configuration not stated) it is 16 µg/mL (≈ 38.7 µM). The figure for `Cc1ccc(NC(=O)COc2cccc3ccccc23)c(O)c1` is 3.8 µg/mL (≈ 12.4 µM); for `N/C(=N\OC(=O)c1cccc(C(F)(F)F)c1)c1cnccn1` it is 2.4 µg/mL (≈ 7.74 µM).

For the compound `O=C(Nc1nc2ccccc2n1CCN1CCOCC1)c1ccc(Cl)cc1`, the kinetic solubility amounted to 0.9 µg/mL (≈ 2.34 µM).

As for `O=C1CN(c2nc3nonc3nc2N2CCCCC2)CCN1`, the solubility (kinetic) was found to be 45.2 µg/mL (≈ 149 µM).

On to `CN(C(=O)CSc1nc2ccc(Cl)cc2[nH]1)C1CCS(=O)(=O)C1` (configuration not stated), for which the solubility (kinetic) is > 56.1 µg/mL.

For the compound `COc1cccc(C(=O)Nc2ccc3c(c2)n(C)c(=O)n3C)c1`, the solubility (kinetic) is > 46.7 µg/mL.

In the case of `Cc1cc(/C=C2\SC(=S)NC2=O)c(C)[nH]1`, the kinetic solubility was > 35.7 µg/mL.
